Values after ≈ are worked out from the molar mass of the structure shown.
How the values were obtained:
[1] = system: Pseudomonas aeruginosa BMH 1; assay: Agar-dilution MIC, pH 8.0 (Table 1); format: cell-based; conditions: BMH1, P. aeruginosa BMH 1, agar-dilution, pH 8.0, read-out: Minimum Inhibitory Concentration
[2] = system: Staphylococcus aureus ATCC 6538P; assay: Agar-dilution MIC, pH 8.0 (Table 1); format: cell-based; conditions: ATCC6538P, S. aureus ATCC 6538P, agar-dilution, pH 8.0, read-out: Minimum Inhibitory Concentration
[3] = system: Bacillus subtilis No. 10707; assay: Agar-dilution MIC, pH 8.0 (Table 1); format: cell-based; conditions: B. subtilis No. 10707, agar-dilution, pH 8.0, read-out: Minimum Inhibitory Concentration
[4] = system: Proteus vulgaris ATCC 6897; assay: microbe, parasite or virus in culture; format: cell-based; conditions: ATCC6897, P. vulgaris ATCC 6897, agar-dilution, pH 8.0, read-out: Minimum Inhibitory Concentration
[5] = system: Shigella sonnei ATCC 9290; assay: microbe, parasite or virus in culture; format: cell-based; conditions: ATCC9290, S. sonnei ATCC 9290, agar-dilution, pH 8.0, read-out: Minimum Inhibitory Concentration
[6] = system: Salmonella typhosa ATCC 9992; assay: Agar-dilution MIC, pH 8.0 (Table 1); format: cell-based; conditions: Salmonella enterica, pH 8, read-out: Minimum Inhibitory Concentration
[7] = system: Krebsiella pneumoniae ATCC 10031; assay: Agar-dilution MIC, pH 8.0 (Table 1); format: cell-based; conditions: Klebsiella pneumoniae, ATCC10031; K. pneumoniae ATCC 10031; agar-dilution, pH 8.0; read-out: Minimum Inhibitory Concentration
Escherichia coli ATCC 26 = assay: Agar-dilution MIC, pH 8.0 (Table 1); format: cell-based; conditions: ATCC26, E. coli ATCC 26, agar-dilution, pH 8.0, read-out: Minimum Inhibitory Concentration
Escherichia coli KY 8327 [8] = assay: Agar-dilution MIC, pH 8.0 (Table 1); format: cell-based; conditions: for MIC: Escherichia coli, KY8327, E. coli KY 8327, produces gentamicin adenyltransferase, agar-dilution, pH 8.0, read-out: Minimum Inhibitory Concentration
Excerpt: (§1) The former bacterium inactivates kanamycins and gentamicins by adenylation, and the latter inactivates gentamicins by acetylation.

Escherichia coli KY 8348 [9] = assay: Agar-dilution MIC, pH 8.0 (Table 1); format: cell-based; conditions: for MIC: Escherichia coli, KY8348, E. coli KY 8348, produces gentamicin acetyltransferase Type I, agar-dilution, pH 8.0, read-out: Minimum Inhibitory Concentration
Excerpt: as §1

[10] = system: Staphylococcus aureus 209 P; assay: Agar dilution MIC, pH 7.2 (Table 2); format: cell-based; conditions: S. aureus 209 P, agar dilution, pH 7.2, read-out: Minimum Inhibitory Concentration
[11] = system: Staphylococcus aureus Smith; assay: Agar dilution MIC, pH 7.2 (Table 2); format: cell-based; conditions: S. aureus Smith, agar dilution, pH 7.2, read-out: Minimum Inhibitory Concentration
[12] = system: Bacillus subtilis ATCC 6633; assay: Agar dilution MIC, pH 7.2 (Table 2); format: cell-based; conditions: ATCC6633, B. subtilis ATCC 6633, agar dilution, pH 7.2, read-out: Minimum Inhibitory Concentration
Sarcina lutea ATCC 9341 = assay: Agar dilution MIC, pH 7.2 (Table 2); format: cell-based; conditions: Micrococcus luteus, ATCC9341; Sarcina lutea ATCC 9341; agar dilution, pH 7.2; read-out: Minimum Inhibitory Concentration
Escherichia coli T-2 = assay: Agar dilution MIC, pH 7.2 (Table 2); format: cell-based; conditions: T2, E. coli T-2, agar dilution, pH 7.2, read-out: Minimum Inhibitory Concentration
Escherichia coli T-5 = assay: Agar dilution MIC, pH 7.2 (Table 2); format: cell-based; conditions: T5, E. coli T-5, agar dilution, pH 7.2, read-out: Minimum Inhibitory Concentration
Escherichia coli KY 8327 [13] = assay: Agar dilution MIC, pH 7.2 (Table 2); format: cell-based; conditions: KY8327, E. coli KY 8327, read-out: Minimum Inhibitory Concentration
Escherichia coli KY 8321 = assay: Agar dilution MIC, pH 7.2 (Table 2); format: cell-based; conditions: KY8321, E. coli KY 8321, produces gentamicin adenyltransferase and neomycin-kanamycin phosphotransferase Type II, agar dilution, pH 7.2, read-out: Minimum Inhibitory Concentration
Escherichia coli KY 8348 [14] = assay: Agar dilution MIC, pH 7.2 (Table 2); format: cell-based; conditions: KY8348, E. coli KY 8348, produces gentamicin acetyltransferase Type I, read-out: Minimum Inhibitory Concentration
Escherichia coli KY 8349 = assay: Agar dilution MIC, pH 7.2 (Table 2); format: cell-based; conditions: KY8349, E. coli KY 8349, produces neomycin-kanamycin phosphotransferase Type I, read-out: Minimum Inhibitory Concentration
[15] = system: Pseudomonas aeruginosa BMH 1; assay: Agar dilution MIC, pH 7.2 (Table 2); format: cell-based; conditions: BMH1, P. aeruginosa BMH 1, agar dilution, pH 7.2, read-out: Minimum Inhibitory Concentration
[16] = system: Pseudomonas aeruginosa KY 8510; assay: Agar dilution MIC, pH 7.2 (Table 2); format: cell-based; conditions: KY8510, P. aeruginosa KY 8510, produces kanamycin acetyltransferase, agar dilution, pH 7.2, read-out: Minimum Inhibitory Concentration
[17] = system: Pseudomonas aeruginosa KY 8511; assay: Agar dilution MIC, pH 7.2 (Table 2); format: cell-based; conditions: KY8511, P. aeruginosa KY 8511, produces gentamicin acetyltransferase Type I and neomycin-kanamycin phosphotransferase Type I, agar dilution, pH 7.2, read-out: Minimum Inhibitory Concentration
[18] = system: Pseudomonas aeruginosa KY 8512; assay: Agar dilution MIC, pH 7.2 (Table 2); format: cell-based; conditions: KY8512, P. aeruginosa KY 8512, produces neomycin-kanamycin phosphotransferase Type I and II and streptomycin phosphotransferase, agar dilution, pH 7.2, read-out: Minimum Inhibitory Concentration
[19] = system: Pseudomonas aeruginosa KY 8516; assay: Agar dilution MIC, pH 7.2 (Table 2); format: cell-based; conditions: KY8516, P. aeruginosa KY 8516, probably produces kanamycin acetyltransferase, agar dilution, pH 7.2, read-out: Minimum Inhibitory Concentration
Providencia sp. 164 = assay: Agar dilution MIC, pH 7.2 (Table 2); format: cell-based; conditions: Providencia sp. 164, produces gentamicin acetyltransferase Type II, read-out: Minimum Inhibitory Concentration
[20] = system: Klebsiella pneumoniae No. 8045; assay: Agar dilution MIC, pH 7.2 (Table 2); format: cell-based; conditions: K. pneumoniae No. 8045, agar dilution, pH 7.2, read-out: Minimum Inhibitory Concentration
Proteus mirabilis 1287 = assay: Agar dilution MIC, pH 7.2 (Table 2); format: cell-based; conditions: Proteus mirabilis; P. mirabilis 1287; agar dilution, pH 7.2; read-out: Minimum Inhibitory Concentration
Proteus vulgaris 6897 = assay: Agar dilution MIC, pH 7.2 (Table 2); format: cell-based; conditions: Proteus vulgaris; P. vulgaris 6897; agar dilution, pH 7.2; read-out: Minimum Inhibitory Concentration
Proteus rettgeri KY 4288 = assay: Agar dilution MIC, pH 7.2 (Table 2); format: cell-based; conditions: Providencia rettgeri, KY4288, P. rettgeri KY 4288, read-out: Minimum Inhibitory Concentration
Proteus morganii KY 4298 = assay: Agar dilution MIC, pH 7.2 (Table 2); format: cell-based; conditions: Morganella morganii, KY4298; P. morganii KY 4298; agar dilution, pH 7.2; read-out: Minimum Inhibitory Concentration
[21] = Acute toxicity in mice, intravenous injection; conditions: mouse, in vivo
[22] = system: strains of the aforementioned resistant bacteria; assay: Protection tests against infections induced by resistant bacteria; format: in vivo
[23] = system: Escherichia coli having R factors; assay: Antibacterial activity against R factor strains; format: cell-based; conditions: E. coli having R factors, resistant to known aminoglycoside antibiotics

Row | SMILES | MIC [1] | MIC [2] | MIC [3] | MIC [4] | MIC [6] | MIC [7] | MIC (Escherichia coli ATCC 26) | MIC (Escherichia coli KY 8327 [8]) | MIC (Escherichia coli KY 8348 [9]) | MIC [10] | MIC [11] | MIC [12] | MIC (Sarcina lutea ATCC 9341) | MIC (Escherichia coli T-2) | MIC (Escherichia coli T-5) | MIC (Escherichia coli KY 8327 [13]) | MIC (Escherichia coli KY 8321) | MIC (Escherichia coli KY 8348 [14]) | MIC (Escherichia coli KY 8349) | MIC [15] | also measured
1 | CNC[C@@H]1CC[C@@H](N)[C@@H](O[C@H]2[C@H](O)[C@@H](O[C@H]3OC[C@](C)(O)[C@H](NC)[C@H]3O)[C@H](N)C[C@@H]2N)O1 [XK-62-2] | 0.52 µg/mL (≈ 1.12 µM) | 0.088 µg/mL (≈ 0.19 µM) | 0.044 µg/mL (≈ 0.0949 µM) | 0.033 µg/mL (≈ 0.0712 µM) | 0.008 µg/mL (≈ 0.0173 µM) | 0.004 µg/mL (≈ 0.00863 µM) | 0.016 µg/mL (≈ 0.0345 µM) | 1.04 µg/mL (≈ 2.24 µM) | 1.04 µg/mL (≈ 2.24 µM) | 0.1 µg/mL (≈ 0.216 µM) | < 0.05 µg/mL | < 0.05 µg/mL | 0.4 µg/mL (≈ 0.863 µM) | 0.4 µg/mL (≈ 0.863 µM) | 0.4 µg/mL (≈ 0.863 µM) | 12.5 µg/mL (≈ 27 µM) | 3.12 µg/mL (≈ 6.73 µM) | 12.5 µg/mL (≈ 27 µM) | 0.4 µg/mL (≈ 0.863 µM) | 0.78 µg/mL (≈ 1.68 µM) | MIC [5]: 0.033 µg/mL (≈ 0.0712 µM); MIC [16]: 1.56 µg/mL (≈ 3.37 µM); MIC [17]: 100 µg/mL (≈ 216 µM); MIC [18]: 0.78 µg/mL (≈ 1.68 µM); MIC [19]: 3.12 µg/mL (≈ 6.73 µM); MIC (Providencia sp. 164): 100 µg/mL (≈ 216 µM); MIC [20]: 0.1 µg/mL (≈ 0.216 µM); MIC (Proteus mirabilis 1287): 0.78 µg/mL (≈ 1.68 µM); MIC (Proteus vulgaris 6897): 0.78 µg/mL (≈ 1.68 µM); MIC (Proteus rettgeri KY 4288): 0.4 µg/mL (≈ 0.863 µM); MIC (Proteus morganii KY 4298): 0.4 µg/mL (≈ 0.863 µM); LD50 [21]: 93 mg/kg
2 | CNC[C@@H]1CC[C@@H](N)[C@@H](O[C@H]2[C@H](O)[C@@H](O[C@H]3OC[C@](C)(O)[C@H](NC)[C@H]3O)[C@H](NC(=O)[C@@H](O)CCN)C[C@@H]2N)O1 [Compound IV, 1-N-[L-(-)-α-hydroxy-γ-aminobutyryl] XK-62-2] | 2.08 µg/mL (≈ 3.68 µM) | 0.016 µg/mL (≈ 0.0283 µM) | 0.004 µg/mL (≈ 0.00708 µM) | 0.065 µg/mL (≈ 0.115 µM) | 0.008 µg/mL (≈ 0.0142 µM) | 0.008 µg/mL (≈ 0.0142 µM) | 0.004 µg/mL (≈ 0.00708 µM) | 0.016 µg/mL (≈ 0.0283 µM) | 0.004 µg/mL (≈ 0.00708 µM) | 0.1 µg/mL (≈ 0.177 µM) | 0.1 µg/mL (≈ 0.177 µM) | 0.1 µg/mL (≈ 0.177 µM) | 0.4 µg/mL (≈ 0.708 µM) | 0.4 µg/mL (≈ 0.708 µM) | 0.4 µg/mL (≈ 0.708 µM) | 0.2 µg/mL (≈ 0.354 µM) | 0.2 µg/mL (≈ 0.354 µM) | 0.1 µg/mL (≈ 0.177 µM) | 0.2 µg/mL (≈ 0.354 µM) | 1.56 µg/mL (≈ 2.76 µM) | antibacterial activity (in words) (Escherichia coli KY 8327 [8]; E. coli KY 8327, from Table 1): strong anti-bacterial activity; antibacterial activity (in words) (Escherichia coli KY 8348 [9]; E. coli KY 8348, from Table 1): strong anti-bacterial activity; MIC [16]: 3.12 µg/mL (≈ 5.53 µM); MIC [17]: 3.12 µg/mL (≈ 5.53 µM); MIC [19]: 3.12 µg/mL (≈ 5.53 µM); MIC (Providencia sp. 164): 12.5 µg/mL (≈ 22.1 µM); MIC [20]: 0.2 µg/mL (≈ 0.354 µM); MIC (Proteus mirabilis 1287): 3.12 µg/mL (≈ 5.53 µM); MIC (Proteus vulgaris 6897): 3.12 µg/mL (≈ 5.53 µM); LD50 [21]: 250 mg/kg; antibacterial activity in protection tests ([22]; infections induced by resistant bacteria, versus gentamicin antibiotics and XK-62-2): much higher antibacterial activity than the gentamicin antibiotics and XK-62-2; retention of the α-hydroxy-γ-aminobutyryl group in vivo ([22]; protection tests, in vivo): maintain the α-hydroxy-γ-aminobutyryl group in vivo; antibacterial activity (in words) [23]: strong anti-bacterial activity
